Source: patent publication US6887705B1, “Tyrosine phosphorylated cleavage furrow-associated proteins (PSTPIPs)” (Genentech, Inc., priority 1997, dated 2005)

Tests used:
[1] = tested on: PSTPIP tyrosine phosphorylation; assay: Tyrosine phosphorylation of endogenous PSTPIP in Baf3 cells; type: cell-based, murine
Method: Baf3 cells were lysed in 1% Triton, 50 mM HEPES. 10% glycerol and 5 mM EDTA containing 1 μg/ml aprotinin, PMSF, leupeptin and pepstatin were 1 mM Sodium Vanadate and 10 mM Iodoacetic acid. Cells were treated with 0.1 mM Pervanadate for 4 hours before lysis. Immunoprecipitations were performed in the vanadate-containing lysis buffer using 1 μg/ml anti-PSTPIP polyclonal antibody and 400 μg of lysate protein at 4° C. overnight. Western blots were performed using 1 μg/ml affinity purified anti-PSTPIP or 1:5000 dilution of commercial 4G10 anti-phosphotyrosine monoclonal (Upstate Biotech). Signal was detected by HRPO-ECL reagents (Pierce). The C221-S mutant was as previously described (Cheng et al., (1996) supra). The PTP HSCF D197-A mutant was generated using PCR. Mutagenesis primer D197A.F ([…]) (SEQ ID NO:24), corresponding to nucleotide 591, and primer D197A.R ([…]) (SEQ ID NO:25) which corresponds to the stop codon, were used in PCR to generate a fragment that could be cut with Mscl and XbaI. pRK.HA.38 WT, a plasmid which encoded the wild type enzyme under the control of the cytomegalovirus promoter (Cheng et al., (1996) supra), was digested with Clal and Mscl and the resulting 600 bp fragment was ligated with the Mscl-Xbal PCR fragment into the Clal and Xbal sites of the pRK.tkneo. […]

[2] = molecular target: T1, interaction between PTP HSCF and PSTPIP (Mus musculus, UniProt P97814); assay: Peptide inhibition of in vitro binding of PSTPIP to GST-PTP HSCF fusion; design: species or system murine; details: GST-PST-rich+CTH PTP HSCF precipitating in vitro translated PSTPIP, varying amounts of peptide
T1 construct: made in house; host or cells: GST fusion: E. coli DH5-alpha; PSTPIP: in vitro transcription/translation in rabbit reticulocyte lysate (Promega TnT)
T1 sequence (P97814 1-415): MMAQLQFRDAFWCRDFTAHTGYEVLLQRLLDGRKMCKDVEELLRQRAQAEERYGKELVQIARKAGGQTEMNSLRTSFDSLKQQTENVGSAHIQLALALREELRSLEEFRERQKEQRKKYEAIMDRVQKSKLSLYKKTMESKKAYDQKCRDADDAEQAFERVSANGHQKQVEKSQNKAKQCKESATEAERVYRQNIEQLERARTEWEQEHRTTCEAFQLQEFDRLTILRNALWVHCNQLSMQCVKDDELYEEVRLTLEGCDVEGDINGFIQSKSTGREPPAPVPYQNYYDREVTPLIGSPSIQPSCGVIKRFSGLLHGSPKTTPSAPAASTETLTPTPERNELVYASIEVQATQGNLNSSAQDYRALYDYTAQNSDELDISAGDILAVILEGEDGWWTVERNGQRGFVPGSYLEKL
Method: The binding was carried out according to the method of Wong and Johnson (Wong et al., J. Biol. Chem. 271(35):20981-20984 (1996)). Briefly, 1 μg of plasmid with either the PSTPIP protein or PTP HSCF under the control of the Sp6 promoter was in vitro transcribed/translated using the Promega™ TnT Rabbit Reticulocyte™ system. Samples were diluted in 50 mM HEPES, pH 7.2, 1% triton X 100, 10% glycerol, 100 mM NaCl, 5 mM EDTA and 2 μg/ml each of leupeptin, pepstatin, aprotinin, and PMSF. […] This was reacted for 1 hour at 4° C. and then the resin washed 6 times in HEPES/Triton binding buffer before SDS gel electrophoresis. The peptides were synthesized on an automated Milligen 9050 Peptide Synthesizer using standard solid phase chemistry with FMOC protected amino acids on a p-alkoxybenzyl alcohol resin. Dried peptides were re-suspended in the HEPES/Triton Binding buffer at a concentration of 10 mg/ml. Peptide inhibition was performed by adding the peptide first to the in vitro translation product and then the GST-fusion followed by the GSH-Sepharose. […]
In vitro binding analyses between various PTP HSCF and PST PIP constructs were performed as previously described (Spencer et al, (1997), supra). […] Samples were than reacted with GST fusion proteins at various concentrations, and the bound proteins were centrifuged using glutathione-sepharose beads and analyzed on SDS polyacrylamide gels. […]

Compound	tyrosine phosphorylation of endogenous PSTPIP [1]	blocking of the PTP HSCF-PSTPIP interaction by peptide [2]
[O]=[V]([O-])([O-])[O-] [vanadate]	significantly enhanced	
GGVLRSISVPAPPTLPMADT [PXXP-CONTROL]		completely unable to block the interaction
